Source: PubChem BioAssay (NCI)
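In this assay, cells in 96-well plates receive the compound at five concentrations for 48 hours. Endpoints are linearly interpolated between the surrounding concentrations. GI50 marks 50% less growth. Definition used: TGI = concentration required for complete inhibition of growth.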

What was measured:
Assay in all cases: NCI tumour cell line growth inhibition, 48 h
HCT-116 colon = tested on: HCT-116 colon
786-0 renal = tested on: 786-0 renal
SK-MEL-28 melanoma = tested on: SK-MEL-28 melanoma
SNB-75 CNS = tested on: SNB-75 CNS
RXF 393 renal = tested on: RXF 393 renal
SK-MEL-5 melanoma = tested on: SK-MEL-5 melanoma
SF-295 CNS = tested on: SF-295 CNS
OVCAR-8 ovarian = tested on: OVCAR-8 ovarian
SF-539 CNS = tested on: SF-539 CNS
IGROV1 ovarian = tested on: IGROV1 ovarian
SW-620 colon = tested on: SW-620 colon
CAKI-1 renal = tested on: CAKI-1 renal
BT-549 breast = tested on: BT-549 breast
EKVX NSCLC = tested on: EKVX NSCLC
HOP-62 NSCLC = tested on: HOP-62 NSCLC
HCC-2998 colon = tested on: HCC-2998 colon
NCI-H460 lung = tested on: NCI-H460 lung
SK-OV-3 ovarian = tested on: SK-OV-3 ovarian
KM12 colon = tested on: KM12 colon
A549 NSCLC = tested on: A549 NSCLC
MALME-3M melanoma = tested on: MALME-3M melanoma
M14 melanoma = tested on: M14 melanoma
A498 renal = tested on: A498 renal
U251 CNS = tested on: U251 CNS
MCF7 breast = tested on: MCF7 breast
HCT-15 colon = tested on: HCT-15 colon
UO-31 renal = tested on: UO-31 renal
COLO 205 colon = tested on: COLO 205 colon
HT29 colon = tested on: HT29 colon

## CN1CCN(Cc2ccc(C(=O)Nc3cccc(Nc4ccc5cc(O)ccc5n4)c3)cc2C(F)(F)F)CC1
HCT-116 colon
  GI50: 3.93 µM
  TGI: 15 µM
786-0 renal
  GI50: 3.13 µM
  TGI: 10.9 µM
SK-MEL-28 melanoma
  GI50: 1.79 µM
  TGI: 3.32 µM
SNB-75 CNS
  GI50: 0.656 µM
  TGI: 15.3 µM
RXF 393 renal
  GI50: 3.55 µM
  TGI: 15.7 µM
SK-MEL-5 melanoma
  GI50: 2.35 µM
  TGI: 6.4 µM
SF-295 CNS
  GI50: 2.33 µM
  TGI: 5.64 µM
OVCAR-8 ovarian
  GI50: 13.2 µM
  TGI: 28.4 µM
SF-539 CNS
  GI50: 1.98 µM
  TGI: 12.2 µM
IGROV1 ovarian
  GI50: 16.6 µM
  TGI: 31.3 µM
SW-620 colon
  GI50: 2.3 µM
  TGI: 4.57 µM
CAKI-1 renal
  GI50: 11.9 µM
  TGI: 24.3 µM
BT-549 breast
  GI50: 12.2 µM
  TGI: 25.4 µM
EKVX NSCLC
  GI50: 14.2 µM
  TGI: 28.3 µM
HOP-62 NSCLC
  GI50: 12.1 µM
  TGI: 24.9 µM
HCC-2998 colon
  GI50: 2.39 µM
  TGI: 5.22 µM
NCI-H460 lung
  GI50: 3.84 µM
  TGI: 15.2 µM
SK-OV-3 ovarian
  GI50: 16.5 µM
  TGI: 30.5 µM
KM12 colon
  GI50: 3.17 µM
  TGI: 10.9 µM
A549 NSCLC
  GI50: 8.7 µM
  TGI: 22.3 µM
MALME-3M melanoma
  GI50: 1.59 µM
  TGI: 3.15 µM
M14 melanoma
  GI50: 9.06 µM
  TGI: 23.5 µM
A498 renal
  GI50: 22.5 µM
  TGI: 37.1 µM
U251 CNS
  GI50: 2.17 µM
  TGI: 6.49 µM
MCF7 breast
  GI50: 2.46 µM
  TGI: 7.31 µM
HCT-15 colon
  GI50: 2.09 µM
  TGI: 4.49 µM
UO-31 renal
  GI50: 13.4 µM
  TGI: 27.3 µM
COLO 205 colon
  GI50: 10.2 µM
  TGI: 23.8 µM
HT29 colon
  GI50: 3.37 µM
  TGI: 12 µM
